Source: the supplement of paper PMC10307832

Columns and labels:
Assay in all cases: relative viability (nuclei count vs DMSO), 5 days (fraction); higher = more cells survive
[1] = compound: CCOc1cc2ncc(C#N)c(Nc3ccc(OCc4ccccn4)c(Cl)c3)c2cc1NC(=O)/C=C/CN(C)C [Neratinib] + CC(C)C[C@H](NC(=O)[C@H](Cc1ccccc1)NC(=O)c1cnccn1)B(O)O [Bortezomib] (partner 0.002 µM)
Outline: (§1)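 After 5 days of treatment, lung cancer cells in 1536-well plates were fixed and stained in a single step (final 0.05% Triton X-100, 1% formaldehyde, 1 ug/ml Hoechst) and their nuclei counted on 4× images. Treatment had been applied by pin tool the day after seeding as one drug alone or as a fixed anchor-drug dose with five library-drug doses (not always all listed) in √10 steps. Relative viability is the nuclei count of treated wells divided by that of vehicle wells, and values are medians of duplicate plates.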

[2] = compound: CCOc1cc2ncc(C#N)c(Nc3ccc(OCc4ccccn4)c(Cl)c3)c2cc1NC(=O)/C=C/CN(C)C [Neratinib] + Cc1cc(Nc2cc(N3CCN(C)CC3)nc(Sc3ccc(NC(=O)C4CC4)cc3)n2)n[nH]1 [Tozasertib] (partner 0.1 µM)
Outline: as §1

[3] = compound: CCOc1cc2ncc(C#N)c(Nc3ccc(OCc4ccccn4)c(Cl)c3)c2cc1NC(=O)/C=C/CN(C)C [Neratinib] + Nc1ncn([C@H]2C[C@H](O)[C@@H](CO)O2)c(=O)n1 [Decitabine] (partner 2 µM)
Outline: as §1

[4] = compound: CCOc1cc2ncc(C#N)c(Nc3ccc(OCc4ccccn4)c(Cl)c3)c2cc1NC(=O)/C=C/CN(C)C [Neratinib] + NC(=O)Nc1cc(-c2cccc(F)c2)sc1C(=O)N[C@H]1CCCNC1 [AZD7762] (partner 0.2 µM)
Outline: as §1

NCI-H1299
relative viability ([1]; first compound 0.01 µM): 1.03
relative viability ([1]; first compound 0.03162 µM): 1
relative viability ([1]; first compound 0.1 µM): 0.965
relative viability ([1]; first compound 0.3162 µM): 1.03
relative viability ([1]; first compound 1 µM): 1.1

NCI-H2170
relative viability ([2]; first compound 0.01 µM): 0.842
relative viability ([2]; first compound 0.03162 µM): 0.684
relative viability ([2]; first compound 0.1 µM): 0.565
relative viability ([2]; first compound 0.3162 µM): 0.266
relative viability ([2]; first compound 1 µM): 0.183
relative viability ([3]; first compound 0.01 µM): 0.548
relative viability ([3]; first compound 0.03162 µM): 0.457
relative viability ([3]; first compound 0.1 µM): 0.412
relative viability ([3]; first compound 0.3162 µM): 0.213
relative viability ([3]; first compound 1 µM): 0.18
relative viability ([4]; first compound 0.01 µM): 0.816
relative viability ([4]; first compound 0.03162 µM): 0.549
relative viability ([4]; first compound 0.1 µM): 0.515
relative viability ([4]; first compound 0.3162 µM): 0.177
relative viability ([4]; first compound 1 µM): 0.159

NCI-H522
relative viability ([2]; first compound 0.01 µM): 0.573
relative viability ([2]; first compound 0.03162 µM): 0.608
relative viability ([2]; first compound 0.1 µM): 0.571
relative viability ([2]; first compound 0.3162 µM): 0.46
relative viability ([2]; first compound 1 µM): 0.499
relative viability ([3]; first compound 0.01 µM): 0.719
relative viability ([3]; first compound 0.03162 µM): 0.671
relative viability ([3]; first compound 0.1 µM): 0.711
relative viability ([3]; first compound 0.3162 µM): 0.557
relative viability ([3]; first compound 1 µM): 0.573
relative viability ([4]; first compound 0.01 µM): 0.781
relative viability ([4]; first compound 0.03162 µM): 0.844
relative viability ([4]; first compound 0.1 µM): 0.878
relative viability ([4]; first compound 0.3162 µM): 0.804
relative viability ([4]; first compound 1 µM): 0.718

A549
relative viability ([3]; first compound 0.01 µM): 0.325
relative viability ([3]; first compound 0.03162 µM): 0.295
relative viability ([3]; first compound 0.3162 µM): 0.264
relative viability ([3]; first compound 1 µM): 0.318

UMC-11
relative viability ([2]; first compound 0.01 µM): 0.198
relative viability ([2]; first compound 0.03162 µM): 0.2
relative viability ([2]; first compound 0.1 µM): 0.216
relative viability ([2]; first compound 0.3162 µM): 0.179
relative viability ([2]; first compound 1 µM): 0.185
relative viability ([1]; first compound 0.01 µM): 0.623
relative viability ([1]; first compound 0.03162 µM): 0.964
relative viability ([1]; first compound 0.1 µM): 0.823
relative viability ([1]; first compound 0.3162 µM): 0.615
relative viability ([1]; first compound 1 µM): 0.729
relative viability ([3]; first compound 0.01 µM): 0.324
relative viability ([3]; first compound 0.03162 µM): 0.574
relative viability ([3]; first compound 0.1 µM): 0.634
relative viability ([3]; first compound 0.3162 µM): 0.414
relative viability ([3]; first compound 1 µM): 0.194

NCI-H358
relative viability ([2]; first compound 0.01 µM): 0.0993
relative viability ([2]; first compound 0.03162 µM): 0.0867
relative viability ([2]; first compound 0.1 µM): 0.0981
relative viability ([2]; first compound 0.3162 µM): 0.0713
relative viability ([2]; first compound 1 µM): 0.0842
relative viability ([3]; first compound 0.01 µM): 0.205
relative viability ([3]; first compound 0.03162 µM): 0.186
relative viability ([3]; first compound 0.3162 µM): 0.129
relative viability ([3]; first compound 1 µM): 0.117
relative viability ([4]; first compound 0.01 µM): 0.533
relative viability ([4]; first compound 0.03162 µM): 0.508
relative viability ([4]; first compound 0.1 µM): 0.358
relative viability ([4]; first compound 0.3162 µM): 0.257
relative viability ([4]; first compound 1 µM): 0.223

CAL-12T
relative viability ([2]; first compound 0.01 µM): 0.487
relative viability ([2]; first compound 0.03162 µM): 0.288
relative viability ([2]; first compound 0.1 µM): 0.249
relative viability ([2]; first compound 0.3162 µM): 0.178
relative viability ([2]; first compound 1 µM): 0.122
relative viability ([1]; first compound 0.01 µM): 0.949
relative viability ([1]; first compound 0.03162 µM): 1.01
relative viability ([1]; first compound 0.1 µM): 0.785
relative viability ([1]; first compound 0.3162 µM): 0.508
relative viability ([1]; first compound 1 µM): 0.335
relative viability ([4]; first compound 0.01 µM): 0.616
relative viability ([4]; first compound 0.03162 µM): 0.695
relative viability ([4]; first compound 0.1 µM): 0.556
relative viability ([4]; first compound 1 µM): 0.646

COR-L23
relative viability ([2]; first compound 0.01 µM): 0.216
relative viability ([2]; first compound 0.03162 µM): 0.217
relative viability ([2]; first compound 0.1 µM): 0.193
relative viability ([2]; first compound 0.3162 µM): 0.186
relative viability ([2]; first compound 1 µM): 0.176
relative viability ([1]; first compound 0.01 µM): 1.06
relative viability ([1]; first compound 0.03162 µM): 1.18
relative viability ([1]; first compound 0.1 µM): 0.888
relative viability ([1]; first compound 0.3162 µM): 0.964
relative viability ([1]; first compound 1 µM): 0.799
relative viability ([3]; first compound 0.01 µM): 0.456
relative viability ([3]; first compound 0.03162 µM): 0.478
relative viability ([3]; first compound 0.1 µM): 0.499
relative viability ([3]; first compound 0.3162 µM): 0.495
relative viability ([3]; first compound 1 µM): 0.473

IA-LM
relative viability ([1]; first compound 0.01 µM): 0.952
relative viability ([1]; first compound 0.03162 µM): 0.908
relative viability ([1]; first compound 0.1 µM): 0.787
relative viability ([1]; first compound 0.3162 µM): 0.891
relative viability ([1]; first compound 1 µM): 0.507

NCI-H1650
relative viability ([2]; first compound 0.01 µM): 0.362
relative viability ([2]; first compound 0.03162 µM): 0.359
relative viability ([2]; first compound 0.1 µM): 0.292
relative viability ([2]; first compound 0.3162 µM): 0.31
relative viability ([2]; first compound 1 µM): 0.204
relative viability ([1]; first compound 0.01 µM): 0.207
relative viability ([1]; first compound 0.03162 µM): 0.201
relative viability ([1]; first compound 0.1 µM): 0.206
relative viability ([1]; first compound 0.3162 µM): 0.228
relative viability ([1]; first compound 1 µM): 0.197
relative viability ([3]; first compound 0.01 µM): 0.398
relative viability ([3]; first compound 0.03162 µM): 0.474
relative viability ([3]; first compound 0.1 µM): 0.474
relative viability ([3]; first compound 0.3162 µM): 0.472
relative viability ([3]; first compound 1 µM): 0.613

SW 1573
relative viability ([2]; first compound 0.01 µM): 0.203
relative viability ([2]; first compound 0.03162 µM): 0.152
relative viability ([2]; first compound 0.1 µM): 0.194
relative viability ([2]; first compound 0.3162 µM): 0.177
relative viability ([2]; first compound 1 µM): 0.122
relative viability ([1]; first compound 0.01 µM): 1.07
relative viability ([1]; first compound 0.03162 µM): 1.28
relative viability ([1]; first compound 0.1 µM): 0.998
relative viability ([1]; first compound 0.3162 µM): 1.08
relative viability ([1]; first compound 1 µM): 0.843
relative viability ([3]; first compound 0.01 µM): 0.466
relative viability ([3]; first compound 0.03162 µM): 0.628
relative viability ([3]; first compound 0.1 µM): 0.574
relative viability ([3]; first compound 0.3162 µM): 0.507
relative viability ([3]; first compound 1 µM): 0.265

Calu-6
relative viability ([1]; first compound 0.01 µM): 1.1
relative viability ([1]; first compound 0.1 µM): 0.993
relative viability ([1]; first compound 0.3162 µM): 1
relative viability ([1]; first compound 1 µM): 0.692
